The text below walks through data of patent US6015801A, “Method for inhibiting bone resorption” (Merck & Co., Inc., priority 1998, dated 2000).

Series [1] relates to esophagus. Conditions: oral; literature; cited from earlier work.
Series [2] has as its system canine esophagus. Kind of series: Esophageal irritation potential in a dog model (infusion into esophagus, histopathology). Conditions: for Esophageal irritation potential: low dosages on consecutive days (Groups 7 and 8). The method, then: The esophageal irritation potential of the bisphosphonates is evaluated using a dog model.
The following solutions are prepared:
(1) simulated gastric juice (pH about 2), i.e. the control solution.
(5) simulated gastric juice (pH about 2) containing about 0.20 mg/mL of risedronate sodium on a risedronic acid active basis.
(6) simulated gastric juice (pH about 2) containing about 4.0 mg/mL of tiludronate disodium on a tiludronic acid active basis.
The pH of the resulting solution is measured and if necessary is adjusted to about 2 using 1.0 M HCl (aqueous) or 1.0 M NaOH (aqueous).
The animals used in the experiments are anesthetized and administered about 50 mL of the appropriate solution over about 30 minutes by infusion into the esophagus using an infusion pump and a rubber catheter. The following treatment experiments are run:
Group 1: This control group contains four animals. Each animal is administered a dosage of about 50 mL of simulated gastric juice [solution (1)] on each of five consecutive days. The animals are sacrificed immediately after the last dose is administered. […]
Group 7: This group contains eight animals. Each animal is administered a dosage of about 50 mL of simulated gastric juice containing about 0.20 mg/mL of risedronate [solution (5)] on each of five consecutive days. The animals are sacrificed immediately after the last dose is administered.
Group 8: This group contains four animals. Each animal is administered a dosage of about 50 mL of simulated gastric juice containing about 4.0 mg/mL of tiludronate [solution (6)] on each of five consecutive days. The animals are sacrificed immediately after the last dose is administered.
The esophagus from each sacrificed animal is removed and prepared for histopathology using standard techniques by embedding the tissue in paraffin, staining with hematoxylin and eosin. The sections are examined microscopically.

In series [3] the test system is bone. The settings on record: cited from earlier work.
Series [4] relates to bone. The settings on record: Mortensen et al. 1995; cited from earlier work.
Where [5] appears, read: 0.20 mg/mL alendronate, 50 mL, 1x daily for 5 days, sacrifice immediately after last dosing (Group 2, n = 4), monosodium trihydrate.
[6] abbreviates: 0.40 mg/mL alendronate, 50 mL, 2x weekly for 4 weeks (Group 6, n = 6), sacrifice about four days after last dose, immediately (Table 1), monosodium trihydrate.
Where [7] appears, read: 0.80 mg/mL alendronate, 50 mL, 1x weekly for a total of 4 doses, sacrifice 7 days after last dosing (Group 5, n = 6), monosodium trihydrate.
Setting [8] is: 0.80 mg/mL alendronate, 50 mL, single dose, sacrifice 24 hours after dosing (Group 3, n = 5), monosodium trihydrate.
The mark [9] stands for this setting: 0.80 mg/mL alendronate, 50 mL, single dose, sacrifice 7 days after dosing (Group 4, n = 5), monosodium trihydrate.
[10] abbreviates: 0.20 mg/mL risedronate, 50 mL, 1x daily for 5 days, sacrifice immediately after last dosing (Group 7, n = 8).

Where two headings read alike, the source gives them in different places.

For the molecule `NCCCC(O)(P(=O)(O)O)P(=O)(O)O` [Alendronate, 4-amino-1-hydroxybutylidene-1,1-bisphosphonic acid monosodium trihydrate], the “Adverse esophageal effects associated with use” value in series [1] is recorded as “esophagitis and/or esophageal ulcers”. In addition, the “Histopathology: esophageal epithelial surface” value in series [2] (setting [5]) was “deep ulceration of the epithelial surface”; in series [2] (setting [6]) it was “deep ulceration of the epithelial surface”; in series [2] (setting [8]), “intact epithelial surface”. In addition, the “Histopathology: submucosal inflammation and vacuolation” value in series [2] (setting [5]) was “marked submucosal inflammation and vacuolation”; in series [2] (setting [6]), “marked submucosal inflammation and vacuolation”; in series [2] (setting [8]) it was “very slight submucosal inflammation and vacuolation”. Moreover, the “Histopathology: vacuolation” value was “no” in series [2] (0.80 mg/mL alendronate, 50 mL, 1x weekly for a total of 4 doses, sacrifice 7 days after last dosing (Group 5, n = 6)); “no vacuolation and no” in series [2] (setting [9]). Also, the “Histopathology: esophageal epithelium” value is “normal with an intact epithelium” in series [2] (setting [7]) and “intact epithelium” in series [2] (setting [9]). Besides, the “Histopathology: submucosal inflammation” value in series [2] (setting [7]) was “absence of inflammatory cells in the submucosa and no”.

On to `CC(O)(P(=O)(O)O)P(=O)(O)O` [Etidronate, 1-hydroxyethane-1,1-diphosphonic acid], for which the “Effect on bone mineralization” value is “impairs mineralization” in series [3] (at doses used clinically) and “decline in bone mineralization” in series [3] (given daily for more than several days).

Take `NCCC(O)(P(=O)(O)O)P(=O)(O)O` [Pamidronate, 3-amino-1-hydroxypropylidene-1,1-bisphosphonic acid]: the “Adverse esophageal effects associated with use” value in series [1] is on record as “esophageal ulcers”.

Regarding `O=P(O)(O)C(O)(Cc1cccnc1)P(=O)(O)O` [Risedronate, 1-hydroxy-2-(3-pyridinyl)-ethylidene-1,1-bisphosphonic acid], the “Antiresorptive bone effect, cyclic versus continuous daily dosing” value in series [4] was “less effective than continuous daily dosing”. Also, in series [2] (setting [10]), the “Histopathology: animals with deep ulceration of epithelial surface” value is 4 of 8 animals; the “Histopathology: esophageal epithelial surface” value is recorded as “deep ulceration of the epithelial surface”; the “Histopathology: submucosal inflammation and vacuolation” value is “marked submucosal inflammation and vacuolation”. Further, the Esophageal irritation potential entry in series [2] is listed as “high”.

Turning to `O=P(O)(O)C(Sc1ccc(Cl)cc1)P(=O)(O)O` [Tiludronate, (4-chlorophenyl)thiomethane-1,1-disphosphonic acid], the Esophageal irritation potential result in series [2] was “high”.
